Experimental data as given in patent publication US12479847B2 (DANA-FARBER CANCER INSTITUTE, INC., priority 2019, dated 2025).

How the values were obtained:
Test in all cases: KINOMEscan (ScanMAX) kinase profiling
Format in all cases: binding
[1] = biological target: T1, panel of 468 kinases (Homo sapiens, UniProt Q9BYP7); conditions: WNK3; 1 μM; read-out: % control
T1 construct: purchased KINOMEscan (ScanMAX) service
Procedure: (§1) The kinase selectivity of inventive compounds 12, 75, and 77 was evaluated by KINOMEscan®. KINOMEscan® (ScanMAX™) analysis was performed against a near comprehensive panel of 468 kinases. The control percentage (% control) for inventive compounds at 1 μM in DMSO was determined by Equation 1: % control=(inventive compound−positive control)/(negative control−positive control)×100%, Equation 1
(§2) wherein the positive control is a compound with a % control value of 0% relative light units (RLU), and the negative control (i.e., DMSO) has % control value of 100% RLU. The enzyme selectivity in the present invention is defined as follows: inventive compounds are considered active for an enzyme when the observed % control is less than 35% (<35%).

[2] = biological target: T2, panel of 468 kinases (Homo sapiens, UniProt Q99759); conditions: MAP3K3; 1 μM; read-out: % control
T2 construct: purchased KINOMEscan (ScanMAX) service
T2 sequence (Q99759 1-626): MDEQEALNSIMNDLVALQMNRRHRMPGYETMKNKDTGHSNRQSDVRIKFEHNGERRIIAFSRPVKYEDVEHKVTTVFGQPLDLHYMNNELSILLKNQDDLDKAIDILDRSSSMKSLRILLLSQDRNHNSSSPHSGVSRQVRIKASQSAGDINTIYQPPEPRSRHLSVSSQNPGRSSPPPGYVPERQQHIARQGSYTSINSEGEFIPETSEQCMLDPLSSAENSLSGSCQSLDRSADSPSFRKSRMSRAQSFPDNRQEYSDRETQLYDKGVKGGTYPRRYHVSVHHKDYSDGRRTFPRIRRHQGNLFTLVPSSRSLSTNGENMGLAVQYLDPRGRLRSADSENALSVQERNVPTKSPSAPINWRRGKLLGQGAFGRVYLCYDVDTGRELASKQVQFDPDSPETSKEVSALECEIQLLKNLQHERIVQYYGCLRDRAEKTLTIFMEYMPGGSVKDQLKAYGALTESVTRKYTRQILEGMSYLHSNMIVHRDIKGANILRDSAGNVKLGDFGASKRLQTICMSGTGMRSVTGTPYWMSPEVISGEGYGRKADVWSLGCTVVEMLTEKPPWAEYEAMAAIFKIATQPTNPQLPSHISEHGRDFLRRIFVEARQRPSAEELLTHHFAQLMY
Procedure: as §1, §2

[3] = biological target: T3, panel of 468 kinases (Homo sapiens, UniProt Q09013); conditions: DMPK; 1 μM; read-out: % control
T3 construct: purchased KINOMEscan (ScanMAX) service
T3 sequence (Q09013 1-629): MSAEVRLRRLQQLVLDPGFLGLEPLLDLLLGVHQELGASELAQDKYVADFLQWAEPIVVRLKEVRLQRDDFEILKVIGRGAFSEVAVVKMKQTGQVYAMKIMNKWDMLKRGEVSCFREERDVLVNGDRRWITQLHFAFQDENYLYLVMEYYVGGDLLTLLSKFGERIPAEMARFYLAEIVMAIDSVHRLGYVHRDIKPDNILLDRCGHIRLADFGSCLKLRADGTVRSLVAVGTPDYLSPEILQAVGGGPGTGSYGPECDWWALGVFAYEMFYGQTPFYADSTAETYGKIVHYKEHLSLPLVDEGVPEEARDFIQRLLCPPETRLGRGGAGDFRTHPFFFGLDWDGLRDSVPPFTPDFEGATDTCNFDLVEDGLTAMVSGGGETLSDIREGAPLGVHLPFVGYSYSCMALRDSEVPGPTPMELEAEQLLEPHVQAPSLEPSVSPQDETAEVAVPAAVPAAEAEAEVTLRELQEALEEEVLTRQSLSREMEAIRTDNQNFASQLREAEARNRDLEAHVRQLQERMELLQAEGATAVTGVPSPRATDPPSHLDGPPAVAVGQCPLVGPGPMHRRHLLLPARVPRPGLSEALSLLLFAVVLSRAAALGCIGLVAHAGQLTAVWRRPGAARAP
Procedure: as §1, §2

[4] = biological target: T4, panel of 468 kinases (Homo sapiens, UniProt Q96D53); conditions: ADCK4; 1 μM; read-out: % control
T4 construct: purchased KINOMEscan (ScanMAX) service
T4 sequence (Q96D53 1-544): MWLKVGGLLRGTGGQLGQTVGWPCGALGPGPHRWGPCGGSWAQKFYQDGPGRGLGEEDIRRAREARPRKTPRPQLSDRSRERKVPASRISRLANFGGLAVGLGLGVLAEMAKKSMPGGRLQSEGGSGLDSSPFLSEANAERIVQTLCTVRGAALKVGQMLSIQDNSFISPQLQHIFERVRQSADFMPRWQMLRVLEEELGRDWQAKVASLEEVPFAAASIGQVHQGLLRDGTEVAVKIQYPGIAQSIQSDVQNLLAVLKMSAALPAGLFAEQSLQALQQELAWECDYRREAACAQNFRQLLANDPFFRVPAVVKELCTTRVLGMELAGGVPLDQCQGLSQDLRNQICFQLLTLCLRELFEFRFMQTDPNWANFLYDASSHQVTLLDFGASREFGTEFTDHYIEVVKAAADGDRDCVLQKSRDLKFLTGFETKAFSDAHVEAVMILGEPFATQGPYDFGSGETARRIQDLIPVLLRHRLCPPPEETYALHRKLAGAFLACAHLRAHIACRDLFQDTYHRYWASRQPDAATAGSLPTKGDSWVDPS
Procedure: as §1, §2

T1 sequence (Q9BYP7 whole entry): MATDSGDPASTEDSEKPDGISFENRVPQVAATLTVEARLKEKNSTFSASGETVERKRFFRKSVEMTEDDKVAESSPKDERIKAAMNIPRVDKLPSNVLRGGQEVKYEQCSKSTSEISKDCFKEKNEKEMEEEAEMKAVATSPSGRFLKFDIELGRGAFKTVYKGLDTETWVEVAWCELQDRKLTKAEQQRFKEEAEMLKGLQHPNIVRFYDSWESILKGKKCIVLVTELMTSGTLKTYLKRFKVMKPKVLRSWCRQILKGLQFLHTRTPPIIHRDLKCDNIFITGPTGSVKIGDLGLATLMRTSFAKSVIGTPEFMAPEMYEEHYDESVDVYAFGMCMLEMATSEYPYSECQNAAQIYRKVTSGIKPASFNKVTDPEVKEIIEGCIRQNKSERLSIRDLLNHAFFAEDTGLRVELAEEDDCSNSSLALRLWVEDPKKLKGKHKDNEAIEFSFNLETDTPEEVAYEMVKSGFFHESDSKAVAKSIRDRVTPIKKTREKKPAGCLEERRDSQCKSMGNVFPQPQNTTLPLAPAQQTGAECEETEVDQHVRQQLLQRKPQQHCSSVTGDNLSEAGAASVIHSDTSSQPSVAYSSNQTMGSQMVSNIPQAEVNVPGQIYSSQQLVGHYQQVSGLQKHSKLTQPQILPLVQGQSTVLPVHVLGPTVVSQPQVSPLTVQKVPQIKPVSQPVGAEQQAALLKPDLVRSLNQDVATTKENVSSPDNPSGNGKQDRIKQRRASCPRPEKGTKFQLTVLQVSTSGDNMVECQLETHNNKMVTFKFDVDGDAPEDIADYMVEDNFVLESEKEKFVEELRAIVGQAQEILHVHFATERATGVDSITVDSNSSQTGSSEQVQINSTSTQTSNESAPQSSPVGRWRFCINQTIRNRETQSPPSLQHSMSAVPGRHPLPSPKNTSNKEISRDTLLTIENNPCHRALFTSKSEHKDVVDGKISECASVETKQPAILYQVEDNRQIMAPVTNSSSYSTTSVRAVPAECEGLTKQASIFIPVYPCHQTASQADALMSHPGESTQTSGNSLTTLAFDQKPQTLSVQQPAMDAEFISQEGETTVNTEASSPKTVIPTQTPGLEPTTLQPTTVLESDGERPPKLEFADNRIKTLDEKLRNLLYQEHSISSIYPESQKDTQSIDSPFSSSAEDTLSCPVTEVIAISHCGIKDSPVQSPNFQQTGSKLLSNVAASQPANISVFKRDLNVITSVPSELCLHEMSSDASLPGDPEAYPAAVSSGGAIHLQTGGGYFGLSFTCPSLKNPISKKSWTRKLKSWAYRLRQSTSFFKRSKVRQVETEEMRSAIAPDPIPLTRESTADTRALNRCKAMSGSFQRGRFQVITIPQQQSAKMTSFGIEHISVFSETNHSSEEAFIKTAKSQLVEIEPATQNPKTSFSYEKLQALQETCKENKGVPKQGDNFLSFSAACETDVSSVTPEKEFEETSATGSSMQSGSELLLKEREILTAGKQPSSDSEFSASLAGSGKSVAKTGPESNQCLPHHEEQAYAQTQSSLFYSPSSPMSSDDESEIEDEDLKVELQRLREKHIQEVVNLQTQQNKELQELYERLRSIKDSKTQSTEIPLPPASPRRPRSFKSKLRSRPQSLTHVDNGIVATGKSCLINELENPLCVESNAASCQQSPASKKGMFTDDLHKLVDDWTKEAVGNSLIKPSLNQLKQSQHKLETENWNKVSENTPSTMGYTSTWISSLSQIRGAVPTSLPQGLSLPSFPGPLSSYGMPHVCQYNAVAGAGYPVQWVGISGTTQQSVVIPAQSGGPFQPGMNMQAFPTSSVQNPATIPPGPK

Structure (SMILES)	remaining binding at 1 µM [1] [%]	remaining binding at 1 µM [2] [%]	remaining binding at 1 µM [3] [%]	remaining binding at 1 µM [4] [%]
CNc1nc(Nc2ccc(S(=O)(=O)N3CCC(N4CCOCC4)CC3)cc2OC)nc2[nH]cc(Cl)c12 [Compound 12, 5-chloro-N2-(2-methoxy-4-((4-morpholinopiperidin-1-yl)sulfonyl)phenyl)-N4-methyl-7H-pyrrolo[2,3-d]pyrimidine-2,4-diamine]	100	100	97	100
CNc1nc(Nc2ccc(C(=O)N3CCC(N4CCOCC4)CC3)c3c2OCO3)nc2[nH]cc(Cl)c12 [Compound 75, (7-((5-chloro-4-(methylamino)-7H-pyrrolo[2,3-d]pyrimidin-2-yl)amino)benzo[d][1,3]dioxol-4-yl)(4-morpholinopiperidin-1-yl)methanone]	93	43	100	100
CNc1nc(Nc2ccc(P3(=O)CCN(C4CCOCC4)CC3)cc2OC)nc2[nH]cc(Cl)c12 [Compound 77, 4-(4-((5-chloro-4-(methylamino)-7H-pyrrolo[2,3-d]pyrimidin-2-yl)amino)-3-methoxyphenyl)-1-(tetrahydro-2H-pyran-4-yl)-1,4-azaphosphinane 4-oxide]	98	100	100	81
